Tests used:
[1] = tested on: primary hippocampal neurons; test: intracellular Ca2+ by Fluo-4 confocal microscopy in primary hippocampal neurons; type: cell-based, rat; conditions: glutamate 100 µM
Method: Rat hippocampal neurons were obtained from 18-day-old Sprague-Dawley rat embryos as previously described with modifications (Subramaniam et al., 2005). The hippocampi were obtained and dissected on ice. Then, the hippocampi were digested with 0.25 % trypsin at 37°C for 15 min. The single neurons were mechanically dissociated by using a Pasteur pipette. The neurons were plated at a density of 2×10^5 cells/mL on 35-mm culture dishes, which were pre-coated with poly-L-lysine (10 μg/mL), in neurobasal eagle’s medium containing 10 % fetal bovine serum, 0.5 mM glutamine, 100 units/mL of penicillin, 100 μg/mL of streptomycin. […]
A confocal laser scanning microscope was used to evaluate relative changes in intracellular calcium concentrations [Ca^2+]i by monitoring Fluo-4 fluorescence after intracellular cleavage of superfused Fluo-4 acetoxymethylester (1 μM, with excitation at 488 nm and emission at 510 nm) (Bkaily, Al-Khoury, Simon, & Jacques, 2017). […] The fluorescence images were obtained by Leica TCS SPE Confocal Microscope and analyzed using the LAS AF software (Leica Microsystems Co., Wetzlar and Mannheim, Germany). The data were obtained by evaluating the fluorescence (F) from selected areas within a cell, following subtraction of background fluorescence, and division by the fluorescence intensity before drug application (F0), expressed as F/F0. […]

[2] = tested on: NMDA receptors (NMDA‐activated current in rat hippocampal neurons); test: whole-cell patch-clamp recording of NMDA-activated current in primary hippocampal neurons; type: cell-based
APP/PS1 mice = test: Aβ plaque staining and Aβ ELISA in brains of APP/PS1 mice; type: in vivo; conditions: for amyloid plaque burdens (Aβ1‐42, Aβ1‐16 staining): prevention study, hippocampus and cortex
Method: APP/PS1 transgenic mice were purchased from Jackson Laboratory and reproduced in the Shenzhen Center for Disease Control and Prevention (Shenzhen, China). Two‐month‐old APP/PS1 mice were divided into four groups: (1) APP/PS1 + Vehicle group; (2) APP/PS1 + MN‐08 (6 mg/kg) group; (3) APP/PS1 + Memantine (Mem, 5 mg/kg) group; (4) APP/PS1 + Donepezil (Done, 1.3 mg/kg, once daily) group; (5) Two‐month‐old C57BL/6J mice as a control group. The APP/PS1 mice were administered drugs twice a day (Done, once daily) by gastric gavage from ages 2 to 8 months for 6 months successively. Control and vehicle groups received equal volumes of saline.
To evaluate the concentration of soluble and insoluble Aβ in AD mice, the hippocampus and cortex were homogenized in the lysate, which was then centrifuged at 12000 g for 30 min at 4°C. Supernatant samples were collected as soluble Aβ. Sediment of the cortex and hippocampus was resuspended with formic acid, incubated on ice for 60 min and then centrifuged at 12,000 g for 30 min at 4°C. The supernatant and Tris/NaH2PO4 buffer were mixed as insoluble Aβ. The concentration of Aβ was analyzed by ELISA kit of human amyloid β (R&D Systems, Minneapolis, MN, USA) following the manufacturer’s instructions.
Immunohistochemistry and immunofluorescence staining were carried out as previously described (Zhang et al., 2017). Coronal brain sections were incubated with […] sodium citrate (pH 6.0) and heated for 15 min. After cooling to room temperature, the sections were immersed in 3 % H2O2 for 10 min followed by blocking solution (10 % fetal bovine serum, 1 % bovine serum albumin and 0.1 % Triton X-100) for 1 h. Sections were then incubated with the following appropriate primary antibodies overnight at 4°C: anti-Aβ1-42 antibody (#ab10148, 1:1000, Abcam), anti-Aβ1-16 antibody (#803014, 1:1000, Abcam) and anti-NeuN antibody (#ab177487, 1:400, Abcam). After rinsing 3 times, the sections of immunohistochemistry staining were incubated with biotin-conjugated universal secondary antibody (Gene Tech, Shanghai, China). For immunofluorescence staining, the sections were incubated with appropriate secondary antibodies for 2 h at room temperature. Image J software was used to analyze the fluorescence intensity and cell counting from six slices at similar coronal positions of each animal; this was performed by a viewer blinded to the experimental group.

[3] = tested on: cerebellar granule neurons (CGNs); test: Hoechst 33342 staining of apoptotic bodies in glutamate-challenged CGNs; type: cell-based, rat; conditions: 24 h glutamate 100 µM
Method: CGNs were prepared from the 8-day-old Sprague–Dawley rats as described in our previous publication (Li et al., 2005). Briefly, animals were anesthetized and sacrificed, and their cerebella were collected. Then, the freshly collected cerebella were rinsed in cold Kreb’s buffer-BSA and digested with 0.025 % trypsin incubated in a 37°C for 15 min. The reaction was stopped, and the single cell suspension was obtained through pipetting up and down the sedimentary tissue. CGNs were seeded in basal modified Eagle’s medium (ThermoFisher Scientific, Waltham, MA, USA) supplemented with 10 % fetal bovine serum, 25 mM KCl, 2 mM glutamine and 100 units/mL penicillin/streptomycin at a density of 1.5×10^6 cells/mL. […]
Chromatin condensation, the apoptotic characteristic feature, was determined by Hoechst 33342 staining as described in previous publications with some modifications (Guo et al., 2017; Jiajia et al., 2017). […] The nuclei were visualized by using a fluorescence Leica TCS SPE confocal (Leica, Wetzlar, Germany) at 200× magnification. In the observation, cells with bright blue fragmented nuclei, which were showing condensation of chromatin, were counted as apoptotic cells. Condensed nuclei were scored by counting at least 500 cells of three randomly chosen fields for each sample in three separated experiments.

CCC12CC3CC(N)(C1)CC(CO[N+](=O)[O-])(C3)C2 (stereo not drawn) [MN‐08]
intracellular Ca2+ influx caused by glutamate ([1]; MN‐08 30 µM): inhibited | IC50 on NMDA‐mediated current compared with memantine [2]: slightly high than memantine | NMDA‐activated current ([2]; MN‐08 1–30 µM, whole‐cell patch‐clamp): inhibited | NMDA‐activated current after washout of the compound (off‐rate) ([2]; NMDA 30 µM, −50 mV): recovered rapidly | IC50 ([2]; holding potential −50 mV, NMDA 30 μM, rat hippocampal neurons, read-out: IC50 on the inhibition of NMDA‐mediated current): 7.32 ± 0.23 µM | amyloid plaque burdens (Aβ1‐42, Aβ1‐16 staining) (APP/PS1 mice; MN‐08 6 mg/kg): obviously attenuated | soluble and insoluble Aβ1–42 (ELISA) (APP/PS1 mice; MN‐08 6 mg/kg, hippocampal and cortical regions): significantly decreased | levels of Aβ1–40 (ELISA) (APP/PS1 mice; MN‐08 6 mg/kg, hippocampi and cortices): no significant difference | numbers of apoptotic bodies ([3]; MN‐08 30 µM): significantly reduced

CC12CC3CC(C)(C1)CC(N)(C3)C2 [memantine, 1‐amino‐3,5‐dimethyladamantane]
intracellular Ca2+ influx caused by glutamate ([1]; memantine 10 µM): inhibited | amyloid plaque burdens (Aβ1‐42, Aβ1‐16 staining) (APP/PS1 mice; memantine 5 mg/kg): obviously attenuated | numbers of apoptotic bodies ([3]; memantine 10 µM): significantly reduced
